Measurements published in patent US7045528B2, “Benzofused heterozryl amide derivatives of thienopyridines useful as therapeutic agents, pharmaceutical compositions including the same, and methods for their use” (Agouron Pharmaceuticals, Inc., priority 2002, dated 2006).
Like-named read-outs stand apart in the source and are kept apart here.

Target: T1, unphosphorylated VEGF-R2Δ50 (FLVK) (Homo sapiens, UniProt P35968, DEL940-989/E990V)
T1 construct: VEGF-R2Δ50 contains residues 806–939 and 990–1171; made in house; host or cells: baculovirus/insect cell system
T1 sequence (P35968 with tags, fused parts or gaps DEL940-989/E990V limits assumed): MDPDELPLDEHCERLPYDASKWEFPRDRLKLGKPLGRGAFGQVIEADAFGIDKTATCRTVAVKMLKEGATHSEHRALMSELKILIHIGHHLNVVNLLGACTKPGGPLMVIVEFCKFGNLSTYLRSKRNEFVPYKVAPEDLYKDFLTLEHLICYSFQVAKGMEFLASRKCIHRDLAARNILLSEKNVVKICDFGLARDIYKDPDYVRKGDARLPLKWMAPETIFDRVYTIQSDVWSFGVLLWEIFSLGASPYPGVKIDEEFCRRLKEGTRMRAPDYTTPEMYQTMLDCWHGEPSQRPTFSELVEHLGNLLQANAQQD
Assay: VEGF-R2 coupled spectrophotometric assay, unphosphorylated VEGF-R2Δ50 (FLVK)
Format: biochemical
Conditions: for inhibition at 0.05 µM: read-out: FLVK (% inh @ 50 nM)
Description: VEGF-R2 Construct for Assay:
This construct determines the ability of a test compound to inhibit tyrosine kinase activity. A construct (VEGF-R2Δ50) of the cytosolic domain of human vascular endothelial growth factor receptor 2 (VEGF-R2) lacking the 50 central residues of the 68 residues of the kinase insert domain was expressed in a baculovirus/insect cell system. Of the 1356 residues of full-length VEGF-R2, VEGF-R2Δ50 contains residues 806–939 and 990–1171, and also one point mutation (E990V) within the kinase insert domain relative to wild-type VEGF-R2. Autophosphorylation of the purified construct was performed by incubation of the enzyme at a concentration of 4 μM in the presence of 3 mM ATP and 40 mM MgCl2 in 100 mM HEPES, pH 7.5, containing 5% glycerol and 5 mM DTT, at 4° C. for 2 h. […] See Parast et al., Biochemistry, 37, 16788–16801 (1998).
Coupled Spectrophotometric (FLVK-P) Assay
The production of ADP from ATP that accompanies phosphoryl transfer was coupled to oxidation of NADH using phosphoenolpyruvate (PEP) and a system having pyruvate kinase (PK) and lactic dehydrogenase (LDH). The oxidation of NADH was monitored by following the decrease of absorbance at 340 nm (e340=6.22 cm^−1 mM^−1) using a Beckman DU 650 spectrophotometer. Assay conditions for phosphorylated VEGF-R2Δ50 (indicated as FLVK-P in the tables below) were the following: 1 mM PEP; 250 μM NADH; 50 units of LDH/mL; 20 units of PK/mL; 5 mM DTT; 5.1 mM poly(E4Y1); 1 mM ATP; and 25 mM MgCl2 in 200 mM HEPES, pH 7.5. Assay conditions for unphosphorylated VEGF-R2Δ50 (indicated as FLVK in the tables) were the following: 1 mM PEP; 250 μM NADH; 50 units of LDH/mL; 20 units of PK/mL; 5 mM DTT; 20 mM poly(E4Y1); 3 mM ATP; and 60 mM MgCl2 and 2 mM MnCl2 in 200 mM HEPES, pH 7.5. Assays were initiated with 5 to 40 nM of enzyme. Ki values were determined by measuring enzyme activity in the presence of varying concentrations of test compounds. […] The binding inhibitions were fitted to equation as described by Morrison. The data were analyzed using Enzyme Kinetic and Kaleidagraph software.

[1] = 50 nM compound, unphosphorylated VEGF-R2Δ50

| SMILES | inhibition at 0.05 µM [1] | Ki (unphosphorylated VEGF-R2Δ50) | inhibition at 0.05 µM |
| --- | --- | --- | --- |
| Cc1cc(NC(=O)c2c(C)oc3cc(Oc4ccnc5ccsc45)ccc23)n[nH]1 [Example 111, 2-Methyl-6-(thieno[3,2-b]pyridin-7-yloxy)-benzofuran-3-carboxylic acid (5-methyl-1H-pyrazol-3-yl)-amide] | 96% |  |  |
| CNC(=O)c1cn(C)c2cc(Oc3ccnc4cc(C(=O)N5CC[C@@H](OC)C5)sc34)ccc12 [Example 22, 6-[2-(3-methoxypyrrolidine-1-carbonyl)-thieno[3,2-b]pyridin-7-yloxy]-1-methyl-1H-indole-3-carboxylic acid methylamide] | 38% | 25.8 nM |  |
| Cc1oc2cc(Oc3ccnc4ccsc34)ccc2c1C(=O)NCCCN1CCOCC1 [Example 112, 2-Methyl-6-(thieno[3,2-b]pyridin-7-yloxy)benzofuran-3-carboxylic acid (3-morpholin-4-ylpropyl)-amide] | 91% |  |  |
| CNC(=O)c1c(C)sc2cc(Oc3ccnc4cc(COCCN5CCCC5)sc34)ccc12 [Example 114, 2-Methyl-6(2-[2-(pyrrolidin-1-yl)ethoxymethyl]thieno[3,2-b]pyridin-7-yloxy)benzo[b]thiophene-3-carboxylic acid methylamide] | 16% | 119 nM |  |
| Cc1oc2cc(Oc3ccnc4ccsc34)ccc2c1C(=O)NCc1ccncc1 [Example 107, 2-Methyl-6-[Thieno(3,2-b)pyridin-7-yloxy]benzofuran-3-carboxylic acid 2-[(4-pyridyl)-methyl] amide] | 17% | 36.7 nM |  |
| Cc1oc2cc(Oc3ccnc4ccsc34)ccc2c1C(=O)NCCC1CCCN1C (stereo not drawn) [Example 110, 2-Methyl-6-(thieno[3,2-b]pyridin-7-yloxy)-benzofuran-3-carboxylic acid [2-(1-methyl-pyrrolidin-2-yl)-ethyl]-amide] | 21% |  |  |
| Cc1oc2cc(Oc3ccnc4ccsc34)ccc2c1C(=O)O [Example 100, 2-Methyl-6[thieno[3,2-b]pyridin-7-yloxy]benzofuran-3-carboxylic acid] | 0% |  |  |
| Cc1cc2nccc(Oc3ccc4c(C(=O)NCCCN5CCOCC5)c(C)sc4c3)c2s1 [Example 140, 2-Methyl-6-(2-methylthieno[3,2-b]pyridin-7-yloxy)benzo[b]thiophene-3-carboxylic acid (3-morpholin-4ylpropyl)-amide] | 90% |  |  |
| CCn1c(C)c(C(=O)NC)c2ccc(Oc3ccnc4cc(C(=O)N5CCC5)sc34)cc21 [Example 71, 6-[2-(Azetidine-1-carbonyl)thieno[3,2-b]pyridin-7-yloxy]-1-ethyl-2-methyl-1H-indole-3-carboxylic acid methylamide] |  |  | 5% |
| CCn1c(C)c(C(=O)NC)c2ccc(Oc3ccnc4cc(-c5nccn5C)sc34)cc21 [Example 72, 1-Ethyl-2-methyl-6-[2-(1-methyl-1H-imidazol-2-yl)-thieno[3,2-b]pyridin-7-yloxy]-1H-indole-3-carboxylic acid methylamide] |  |  | 2% |
| CNC(=O)c1c(C)n(C)c2cc(Oc3ccnc4cc(C(=O)N5C[C@H](OC)[C@H](OC)C5)sc34)ccc12 [Example 36, 6-[2-(3,4-Dimethoxy-pyrrolidine-1-carbonyl)-thieno[3,2-b]pyridin-7-yloxy]-1,2-dimethyl-1H-indole-3-carboxylic acid methylamide] | 41% | 11.5 nM |  |
| CCc1c(C(=O)NC)c2ccc(Oc3ccnc4cc(C(=O)N5CC[C@@H](O)C5)sc34)cc2n1C [Example 73, 2-Ethyl-6-[2-(3-hydroxy-pyrrolidine-1-carbonyl)-thieno[3,2-b]pyridin-7-yloxy]-1-methyl-1H-indole-3-carboxylic acid methylamide] | 48% | 10.3 nM |  |
| CNC(=O)c1c(C)n(C)c2cc(Oc3ccnc4cc(C(=O)N(C)CCN(C)C)sc34)ccc12 [Example 29, N-[2-(Dimethylamino)ethyl]-7-({1,2-dimethyl-3-[(methylamino)carbonyl]-1H-indol-6-yl}oxy)-N-methylthieno[3,2-b]pyridine-2-carboxamide] | 6% | 88.8 nM |  |
| CNC(=O)c1c(C)sc2cc(Oc3ccnc4cc(CN5CCCC5)sc34)ccc12 [Example 115, 2-Methyl-6-(2-[pyrrolidin-1-ylmethyl]thieno[3,2-b]pyridin-7-yloxy)benzo[b]thiophene-3-carboxylic acid methylamide] | 4% |  |  |
| Cc1cc2nccc(Oc3ccc4c(C(=O)NCCN5CCOCC5)c(C)sc4c3)c2s1 [Example 139, 2-Methyl-6-(2-methylthieno[3,2-b]pyridin-7-yloxy)benzo[b]thiophene-3-carboxylic acid (2-morpholin-4-yl-ethyl)-amide] | 40% |  |  |
| CNC(=O)c1c(C)n(C)c2cc(Oc3ccnc4cc(C(=O)N(C)CCO)sc34)ccc12 [Example 31] | 25% | 30.2 nM |  |
| CNC(=O)c1c(C)sc2cc(Oc3ccnc4cc(CN(C)C)sc34)ccc12 [Example 116, 6-(2-[Dimethylaminomethyl]thieno[3,2-b]pyridin-7-yloxy)-2-methylbenzo[b]thiophene-3-carboxylic acid methylamide] | 4% |  |  |
| CNC(=O)c1c(C(C)C)oc2cc(Oc3ccnc4cc(C(=O)N5CC[C@@H](OC)C5)sc34)ccc12 [Example 15, 6-(2-[3-methoxypyrrolidine-1-carbonyl]thieno[3,2-b]pyridin-7-yloxy)-2-(1-methylethyl)benzofuran-3-carboxylic acid methylamide] | 13% | 48.3 nM |  |
| CNC(=O)c1c(C(F)(F)F)n(C)c2cc(Oc3ccnc4cc(-c5nccn5C)sc34)ccc12 [Example 76, 1-Methyl-6-[2-(1-methyl-1H-imidazol-2-yl)-thieno[3,2-b]pyridin-7-yloxy]-2-trifluoromethyl-1H-indole-3-carboxylic acid methylamide] | 36% | 6.26 nM |  |
| CNC(=O)c1c(C)n(C)c2cc(Oc3ccnc4cc(-c5nc(C(C)(C)O)co5)sc34)ccc12 [Example 47, 6-{2-[4-(1-Hydroxy-1-methyl-ethyl)-oxazol-2-yl]-thieno[3,2-b]pyridin-7-yloxy}1,2-dimethyl-1H-indole-3-carboxylic acid methylamide] | 41% | 19.7 nM |  |
| CCc1oc2cc(Oc3ccnc4cc(C(=O)N5CCC[C@H]5COC)sc34)ccc2c1C(=O)NC [Example 96, 2-ethyl-6-(2-[(S)-2-(methoxymethyl)pyrrolidine-1-carbonyl]thieno[3,2-b]pyridin-7-yloxy)-benzofuran-3-carboxylic acid methyl amide] | 51% | 9.61 nM |  |
| CNC(=O)c1c(C)n(C)c2cc(Oc3ccnc4cc(-c5cccc(CN(C)C)n5)sc34)ccc12 [Example 52, 6-[2-(6-Dimethylaminomethyl-pyridin-2-yl)-thieno[3,2-b]pyridin-7-yloxy]-1,2-dimethyl-1H-indole-3-carboxyllc acid methylamide] | 41% | 24.9 nM |  |
| Cc1oc2cc(Oc3ccnc4ccsc34)ccc2c1C(=O)NCCc1ccc(S(N)(=O)=O)cc1 [Example 108, 2-Methyl-6-(thieno[3,2-b]pyridin-7-yloxy)-benzofuran-3-carboxylic acid [2-(4-sulfamoyl-phenyl)-ethyl]-amide] | 61% |  |  |
| Cc1oc2cc(Oc3ccnc4ccsc34)ccc2c1C(=O)Nc1ccc2[nH]ccc2c1 [Example 113, 2-Methyl-6-(thieno[3,2-b]pyridin-7-yloxy)-benzofuran-3-carboxylic acid (1H-indol-5-yl)-amide] | 99% |  |  |
| CNC(=O)c1cn(C)c2cc(Oc3ccnc4cc(-c5nccn5C)sc34)ccc12 [Example 23, 1-Methyl-6-[2-(1-methyl-1H-imidazol-2-yl)-thieno[3,2-b]pyridin-7-yloxy]-1H-indole-3-carboxylic acid methylamide] | 19% | 78 nM |  |
| CCC(=O)c1cc2nccc(Oc3ccc4c(C(=O)NCCCN5CCOCC5)c(C)n(C)c4c3)c2s1 [Example 68, 1,2-Dimethyl-6-(2-propionyl-thieno[3,2-b]pyridin-7-yloxy)-1H-indole-3-carboxylic acid (3-morpholin-4-yl-propyl)-amide] | 37% |  |  |
